# Entries after “also recorded” stand apart in the source; their conditions may differ.
# B1: His6-Te2FT: N-His6-tagged recombinant α1-2-fucosyltransferase from Thermosynechococcus elongatus BP-1 (SEQ ID NO:1) (protein, listed as Thermosynechococcus elongatus)
# chain: MIIVHLCGGLGNQMFQYAAGLAAAHRIGSEVKFDTHWFDATCLHQGLELRRVFGLELPEPSSKDLRKVLGACVHPAVRRLLAGHFLHGLRPKSLVIQPHFHYWTGFEHLPDNVYLEGYWQSERYFSNIADIIRQQFRFVEPLDPHNAALMDEMQSGVSVSLHIRRGDYFNNPQMRRVHGVDLSEYYPAAVATMIEKTNAERFYVFSDDPQWVLEHLKLPVSYTVVDHNRGAASYRDMQLMSACRHHIIANSTFSWWGAWLNPRPDKVVIAPRHWFNVDVFDTRDLYCPGWIVL
# modifications: N-terminal His6 tag
# Experiments:
# His6-Te2FT [1] = molecular target: T1, His6-Te2FT (Thermosynechococcus vestitus, UniProt Q8DK72); assay: Effects of metal ions, DTT and EDTA on α1-2-fucosyltransferase activity; format: biochemical, Thermosynechococcus elongatus BP-1; details: pH 7.5; for effect on α1-2-fucosyltransferase activity: 10 mM added; for effect on α1-2-fucosyltransferase activity / enhancement of α1-2-fucosyltransferase activity: acceptor Galβ1-3GlcNAcβ2AA; for enhancement of α1-2-fucosyltransferase activity: 5-20 mM added
# Method: For metal effects, various concentrations (5 mM, 10 mM, or 20 mM) of MgCl2 or MnCl2 were added and EDTA (as a chelating agent) (10 mM) and DTT (10 mM) were used in a Tris-HCl buffer (pH 7.5, 200 mM) to analyze their effects on the α1-2-fucosyltransferase activity of His6-Te2FT for acceptor Galβ1-3GlcNAcβ2AA. Reaction without metal ions, EDTA and DTT was used as a control. The effects of metal ions Mg^2+ and Mn^2+ as well as DTT and the chelating agent EDTA on the α1-2-fucosyltransferase activity of His6-Te2FT toward and acceptor Galβ1-3GlcNAcβ2AA were examined at pH 7.5.
# His6-Te2FT [2] = molecular target: T1, His6-Te2FT; assay: Kinetics of α1-2-fucosyltransferase activity by HPLC assays; format: biochemical, Thermosynechococcus elongatus BP-1; details: for Km / kcat: 2FT activity, apparent, pH 6.0, 37° C., MgCl2 20 mM, other substrate fixed at 1 mM
# Method: Typical enzymatic assays were carried out in duplicate in a total volume of 10 μL in Tris-HCl buffer (pH 6.0, 200 mM) containing MgCl2 (20 mM), GDP-fucose, Galβ1-3GlcNAcβ2AA, and the recombinant His6-Te2FT (0.75 μg). All reactions were allowed to proceed for 10 min at 37° C. Apparent kinetic parameters were obtained by varying the GDP-fucose concentration from 0.1 to 10.0 mM (0.1, 0.2, 0.4, 1.0, 5.0, and 10.0 mM) and a fixed concentration of Galβ1-3GlcNAcβ2AA (1 mM); or a fixed concentration of GDP-fucose (1 mM) and varied concentrations of Galβ1-3GlcNAcβ2AA from 0.1 to 10.0 mM (0.1, 0.2, 0.4, 5.0, and 10.0 mM). The reaction mixture was quenched by boiling for 2 minutes and diluted 60-fold for detection. Apparent kinetic parameters were obtained by fitting the data into the Michaelis-Menten equation using Grafit 5.0.
# His6-Te2FT [3] = molecular target: T1, His6-Te2FT; assay: Kinetics of GDP-fucose hydrolysis by capillary electrophoresis assays; format: biochemical, Thermosynechococcus elongatus BP-1
# Method: The enzymatic assays were carried out in duplicate in a total volume of 10 μL in Tris-HCl buffer (200 mM, pH 9.0) containing MgCl2 (20 mM), GDP-fucose and the recombinant protein (4.5 μg). Reactions were allowed to proceed for 30 min at 37° C. Apparent kinetic parameters were obtained by varying the final GDP-fucose concentration from 0.4 to 2.0 mM (0.4, 0.5, 0.6, 0.8, 1.0 and 2.0 mM). Apparent kinetic parameters were obtained by fitting the data (the average values of duplicate assay results) into the Michaelis-Menten equation using Grafit 5.0.
# [4] = test system: Bifidobacterium animalis subsp. lactis (B. lactis) ATCC 27536; assay: Growth of bifidobacteria on mMRS medium with substrate as sole carbohydrate source; format: cell-based; details: 2% (wt/vol) in mMRS, 37° C., anaerobic, OD600
# Method: (§1) B. infantis 15697 and B. animalis 27536 were tested for growth in the presence of glucose, HMOS, and LNFP I. Growth assays were performed as previously described.^[35] Briefly, two microliters of each resulting overnight culture was used to inoculate 150 μL of modified MRS medium (mMRS), devoid of glucose and supplemented with 2% (wt/vol) of each sterile-filtered substrate as the sole carbohydrate source. The medium was supplemented with 0.05% (wt/vol) 1-cysteine, and in all the cases the cultures in the wells of the microtiter plates were covered with 30 μL of sterile mineral oil to avoid evaporation. The incubations were carried out at 37° C. in an anaerobic chamber (Coy Laboratory Products). Cell growth was monitored in real time by assessing optical density at 600 nm (OD600) using a BioTek PowerWave 340 plate reader (BioTek, Winoosky, Vt.) every 30 min, preceded by 30 seconds of shaking at variable speed. Two biological replicates and three technical replicates each were performed for every strain. Fermentations were carried out in triplicate.
# [5] = test system: Bifidobacterium longum subsp. infantis (B. infantis) ATCC 15697; assay: as above; format: cell-based; details: 2% (wt/vol) in mMRS, 37° C., anaerobic, OD600
# Method: as §1
# His6-Te2FT [6] = molecular target: T1, His6-Te2FT; assay: Acceptor substrate specificity studies of His6-Te2FT; format: biochemical, Thermosynechococcus elongatus BP-1
# [7] = pH profile of α1-2-fucosyltransferase activity of His6-Te2FT by HPLC; format: biochemical
# Method: Each reaction was carried out in duplicate at 37° C. for 10 minutes in a total volume of 10 μL in a buffer (200 mM) with pH varying from 3.0 to 11.0. The buffers used were: Citric, pH 3.0-4.0, NaOAc/HOAc, pH 4.5, MES, pH 5.0-6.5; Tris-HCl, pH 7.0-9.0; and CAPS, pH 10.0-11.0. The reaction system was: GDP-fucose (1 mM), fluorophore 2-anthranilic acid (2AA)-labeled oligosaccharide (Galβ1-3GlcNAcβ2AA, 1 mM), MgCl2 (20 mM), and the recombinant enzyme, His6-Te2FT (0.25 μg). The reaction mixture was stopped by boiling for 2 min and then adding an equal volume of water (10 μL) to make a […] dilution for Galβ1-3GlcNAcβ2AA. The samples were analyzed by a Shimadzu LC-2010A system equipped with a membrane online degasser, a temperature control unit and a fluorescence detector. A reverse-phase Premier C18 column (250×4.6 mm i.d., 5 μm particle size, Shimadzu) protected with a C18 guard column cartridge was used. The mobile phase was 20% acetonitrile. The ratio of the absorbance for fluorescent-labeled product at 315-400 nm was determined.
# [8] = pH profile of GDP-fucose hydrolysis of His6-Te2FT by capillary electrophoresis; format: biochemical
# Method: Each reaction was carried out in duplicate at 37° C. for 30 minutes in a total volume of 10 μL in a buffer (200 mM) with pH varying from 3.0 to 11.0. The buffers used were: Citric, pH 3.0-4.0, NaOAc/HOAc, pH 4.5, MES, pH 5.0-6.5; Tris-HCl, pH 7.0-9.0; and CAPS, pH 10.0-11.0 containing GDP-fucose (1 mM), MgCl2 (20 mM) and the recombinant enzyme (3.75 μg). Reactions were stopped by boiling for 2 min followed by adding an equal volume of water (10 μL) to make a two-fold dilution. The samples were kept on ice until aliquots of 6 μL were withdrawn and analyzed by a Beckman P/ACE MDQ capillary electrophoresis system (60 cm×75 μm i.d.) with a PDA detector. The ratio of the absorbance for GDP-fucose and GDP at 254 nm was determined at different concentrations (2.5, 5, and 10 mM). All assays were carried out in duplicate.
# [9] = Effect of temperature on α1-2-fucosyltransferase activity of His6-Te2FT; format: biochemical
# Method: Assays were carried out in a total volume of 10 μL in a Tris-HCl buffer (pH 6.0, 200 mM) at temperatures ranging from 15° C. to 70° C. The reaction mixture contained GDP-fucose (1 mM), MgCl2 (20 mM), Galβ1-3GlcNAcβ2AA (1 mM), and the recombinant His6-Te2FT (1.5 μg). All reactions were allowed to proceed for 10 minutes at various temperatures. The reaction was stopped by boiling for 2 minutes, and diluted 60-fold for detection.
# [10] = Effect of freeze-dry cycle (lyophilization and rehydration) on His6-Te2FT activity; format: biochemical; details: lyophilized, rehydrated
# Method: Purified His6-Te2FT samples were prepared essentially as described in Example 1, and were dialyzed against 20 mM Tris-HCl without glycerol and lyophilized. The Te2FT powders were stored at −70° C. for 20 days, or for several months. After that, the dried powder was dissolved in water and 20 mM Tris-HCl buffer, respectively. The activities of the lyophilized His6-Te2FT samples were compared with the same amount and concentration of freshly prepared Te2FT samples. The reaction mixture was GDP-fucose (1 mM), Galβ1-3GlcNAcβ2AA, (1 mM), MgCl2 (20 mM), and His6-Te2FT (0.75 μg). All reactions were performed in duplicate and allowed to proceed for 10 minutes at 37° C.
# [11] = GDP-Fuc hydrolysis, apparent, pH 9.0, 37° C., MgCl2 20 mM
# [12] = acceptor Galβ1-3GlcNAcβ2AA, 37° C., 10 minutes
molecule,measurement,setting,value
"O[C@H](CS)[C@H](O)CS (racemic) [DTT, dithiothreitol]",effect on α1-2-fucosyltransferase activity,His6-Te2FT [1],decreased His6-Te2FT activity moderately
"O=C(O)CN(CCN(CC(=O)O)CC(=O)O)CC(=O)O [EDTA, ethylenediaminetetraacetic acid]",effect on α1-2-fucosyltransferase activity,His6-Te2FT [1],decreased its activity only slightly
"C[C@@H]1O[C@H](OP(=O)(O)OP(=O)(O)OC[C@H]2O[C@@H](n3cnc4c(=O)[nH]c(N)nc43)[C@H](O)[C@@H]2O)[C@@H](O)[C@H](O)[C@@H]1O [GDP-fucose, Guanosine 5′-diphosphate-fucose]",Km,His6-Te2FT [2],730 ± 680 µM
same,kcat,His6-Te2FT [2],0.438 ± 0.013 s⁻¹
same,"kcat value for GDP-fucose, higher compared to GST-WbsJ","His6-Te2FT [2]; His6-Te2FT versus GST-WbsJ, acceptor Galβ1-3GlcNAcβ2AA",201 fold
same,"kcat value for GDP-fucose, higher compared to His6Prop-WgbL","His6-Te2FT [2]; His6-Te2FT versus His6Prop-WgbL, acceptor Galβ1-3GlcNAcβ2AA",6.7 fold
same,"kcat value for GDP-fucose, higher compared to Hp2FT","His6-Te2FT [2]; His6-Te2FT versus Hp2FT, acceptor Galβ1-3GlcNAcβ2AA",14.6 fold
same,"kcat/KM value for GDP-Fuc, higher than WbgL",His6-Te2FT [2]; His6-Te2FT versus WbgL,2.5 fold
same,"kcat/KM value for GDP-Fuc, higher than WbsJ",His6-Te2FT [2]; His6-Te2FT versus WbsJ,29.2 fold
same,Km,His6-Te2FT [3]; [11],560 ± 210 µM
same,kcat,His6-Te2FT [3]; [11],0.005 ± 0.001 s⁻¹
same,GDP-fucose (donor) hydrolysis activity weaker than α1-2-fucosyltransferase activity,"His6-Te2FT [3]; His6-Te2FT, ratio of kcat/KM",47 fold
"CC(=O)N[C@H]1[C@H](O[C@H]2[C@@H](O)[C@@H](CO)O[C@@H](O[C@H]3[C@H](O)[C@@H](O)C(O)O[C@@H]3CO)[C@@H]2O)O[C@H](CO)[C@@H](O)[C@@H]1O[C@@H]1O[C@H](CO)[C@H](O)[C@H](O)[C@H]1O[C@@H]1O[C@@H](C)[C@@H](O)[C@@H](O)[C@@H]1O (some centres unmarked) [LNFP I, Fucα1-2Galβ1-3GlcNAcβ1-3Galβ1-4Glc]",growth with substrate as sole carbon source,[4],failed to grow
same,growth compared with growth on glucose,[5],remarkably faster
same,growth with substrate as sole carbon source,[5],grew well; also recorded: selectively consumed as a carbon source
"[Cl-].[Cl-].[Mg+2] [Mg^2+, MgCl2]",enhancement of α1-2-fucosyltransferase activity,His6-Te2FT [1],about two-fold
"[Cl][Mn][Cl] [Mn^2+, MnCl2]",enhancement of α1-2-fucosyltransferase activity,His6-Te2FT [1],about two-fold
Gal1-3GlcNAcαOR,suitability as acceptor substrate for adding α1-2-linked fucose,His6-Te2FT [6],worked well
Gal β1-3GlcNAcβ1-3Galβ1-4Glc [LNT],suitability as acceptor substrate for adding α1-2-linked fucose,His6-Te2FT [6],excellent acceptor
Galβ1-3GalNAcαOR,suitability as acceptor substrate for adding α1-2-linked fucose,His6-Te2FT [6],worked well
Galβ1-3GalNAcβOR,suitability as acceptor substrate for adding α1-2-linked fucose,His6-Te2FT [6],worked well
Galβ1-3GlcNAcβ2AA,Km,His6-Te2FT [2],790 ± 110 µM
same,kcat,His6-Te2FT [2],0.333 ± 0.012 s⁻¹
same,"affinity for the acceptor compared to GST-WbsJ, His6Prop-WgbL and Hp2FT",His6-Te2FT [2]; His6-Te2FT versus other 2FTs,higher affinity
Galβ1-3GlcNAcβOR,suitability as acceptor substrate for adding α1-2-linked fucose,His6-Te2FT [6],worked well
Galβ1-4GlcNAcβOR,suitability as acceptor substrate for adding α1-2-linked fucose,His6-Te2FT [6],not good acceptors
Galβ1-4GlcβOR,suitability as acceptor substrate for adding α1-2-linked fucose,His6-Te2FT [6],not good acceptors
B1,pH of optimal activities,[7]; [12],4.5-6.0
same,pH range in which active,[7]; [12],4.0-10.0
same,activity as % of the optimal activity,[7]; pH 6.5,About 85%
same,optimal pH for the GDP-fucose hydrolysis activity,"[8]; 37° C., 30 minutes",9.5
same,donor hydrolysis activity,"[8]; pH range 5.0-8.0, 15-fold more enzyme and 3-fold longer reaction time",at a minimum
same,requirement of a divalent metal ion for α1-2-fucosyltransferase activity,His6-Te2FT [1],not required
same,activity at low temperature,[9]; 15° C. and 20° C.,Low activity
same,activity at high temperature,[9]; 65° C. or 70° C.,minimal activity
same,temperature range in which active,"[9]; pH 6.0, 10 minutes",25-60 °C
same,temperature range of optimal activities,"[9]; pH 6.0, 10 minutes",30-45 °C
same,stability to freeze-dry treatment,[10],can survive a freeze-dry treatment

# From patent US11572548B2, “Reaction mixture for synthesis of alpha1-2-fucosides” (The Regents of the University of California, priority 2015, dated 2023)
